Results on four compounds are retold here after patent publication US12268671B2, “IL-8 inhibitors for use in the treatment of chemotherapy-induced peripheral neuropathy” (DOMPÉ FARMACEUTICI S.P.A., priority 2016, dated 2025).

The test system of series [1] is Male Wistar rats. As to the kind of experiment: Paclitaxel-induced cold allodynia (acetone test). It is filed as in vivo, rat. The following applies: paclitaxel model. Here is the method:
(§1) Male Wistar rats (200-250 g, Harlan Italy) were housed in a room with controlled temperature (22±1° C.), humidity (60±10%) and light (12 h per day); food and water were available ad libitum.
(§2) The rats received: • 1—four once a day intraperitoneal (i.p.) injections of either paclitaxel (Tocris, Italy) (2 mg/kg/day i.p.; cumulative dose of 8 mg/kg i.p.) or vehicle (saline, 1 ml/kg/day i.p.), administered on alternate days (days 0, 2, 4, and 6), as described in Polomano et al, Pain 2001, 94:293-294. Behavioral testing was performed prior to paclitaxel/vehicle administration (day-1), and again on days 5-7-10-14 following paclitaxel/vehicle injection; • or • 2—oxaliplatin (2.4 mg/kg) dissolved in 5% glucose solution which was administered intraperitoneally (i.p.) at a volume of 0.5 mL/rat, for 5 consecutive days every week for 3 weeks, as described in Cavaletti et al., Eur. J. Cancer, 2001 37, 2457-63. Behavioral testing was performed before oxaliplatin/vehicle administration (day-1), and at again on day 3-5-7-10-14-21 day following oxaliplatin/vehicle injection.
(§3) DF2726A (30 mg/kg) (5 mg/1 ml, 0.5 ml/os/rat) was dissolved in 10% SOLUTOL-HS15 and N-methylpyrrolidone (NMP) (SOLUTOL:NMP 2:1 w/v) and 90% PBS 1×, and was administered once a day from day −3 up to day 11 after paclitaxel administration. Anti-allodynic effects were assessed on day 5, 7, 10 and 14 after paclitaxel administration. Control animals received vehicle (10% SOLUTOL-NMP 2:1 w/v and PBS, 5 mg/1 ml; 0.5 m1/os/rat).
(§4) DF1681B was administered by continuous subcutaneous infusion using the ALZET osmotic pumps Model 2ML2 (Charles River). In details, DF1681B (9.37 g) was dissolved in sterile saline (25 ml) at a concentration of 375 mg/ml and vortexed for 10 min. Osmotic pumps were implanted under anesthesia (100 mg/kg ketamine and 10 mg/kg xylazine i.p.) through a surgical incision between the scapulae. Pumps were implanted 3 days before first paclitaxel injection (day-3). Drug delivery was carried out continuously until day +11. Control animals received vehicle (sterile saline).
Cold sensitivity was measured as the number of foot withdrawal responses after application of acetone to the dorsal surface of the paw (2). A drop of acetone was applied to the dorsal surface of paws with a syringe connected to a thin polyethylene tube while the rats was standing on a metal mesh. […] Cold responses were measured on both paws before (day −1) and, then on 5, 7, 10 and 14 days after paclitaxel/vehicle administration or on days 0, 5, 7, 10, 14 and 21 after oxalipaltin/vehicle administration.
(§5) All data were presented as the mean±SEM. The significance of differences between groups was determined by two-way analyses of variance (ANOVA) followed by Bonferroni post hoc tests for multiple comparisons. […]

For series [2], the system named is Male Wistar rats. As to the kind of experiment: Oxaliplatin-induced mechanical allodynia (Dynamic Plantar Aesthesiometer). It is filed as in vivo, rat. Particulars: oxaliplatin model, days 14 and 21. Here is the method: as §1
as §2, with “Behavioral testing was performed before oxaliplatin/vehicle administration (day-1), and at again on day 3-5-7-10-14-21 day following oxaliplatin/vehicle injection.” left out
To assess the development of mechanical allodynia, sensitivity to tactile stimulation was measured using the Dynamic Plantar Aesthesiometer (DPA, Ugo Basile, Italy). […]
as §5

Series [3] relates to Male Wistar rats. As to the kind of experiment: Oxaliplatin-induced cold allodynia (acetone test). It is filed as in vivo, rat. The following applies: oxaliplatin model. On the procedure:
as §1, §2
DF2726A (30 mg/kg/os) was dissolved in PBS and it was administrated, for 24 consecutive days starting 3 days before oxaliplatin administration and continuing for other 21 days after the first administration of oxaliplatin. During this period the compound was given 2 h after oxaliplatin treatment. Since DF2726A is a sodium salt it was dissolved at the concentration of 16 mg/ml, to reach the active drug dose of 30 mg/kg.
DF1681B was administered by continuous subcutaneous infusion using the ALZET osmotic pumps Model 2ML2 (Charles River). In order to obtain a rate of infusion of 8 mg/hr/kg as described by Cavalieri et al Int J Immunopathol Pharmacol, 2005, 18:475-86, DF1681B (9.37 g) was dissolved in sterile saline (25 ml) at a concentration of 375 mg/ml and vortexed for 10 min. Osmotic pumps were implanted under anesthesia (100 mg/kg ketamine and 10 mg/kg xylazine i.p.). Pumps were prepared according to Alzet instructions sheet. Briefly, pumps were filled with 2 ml of DF1681B solution or vehicle using sterile syringe. Finally, pumps were kept in water bath overnight in stove at 37° C. […]
Cold sensitivity was measured as the number of foot withdrawal responses after application of acetone to the dorsal surface of the paw (2). […] Cold responses were measured on both paws before (day −1) and, then on 5, 7, 10 and 14 days after paclitaxel/vehicle administration or on days 0, 5, 7, 10, 14 and 21 after oxalipaltin/vehicle administration.
as §5

The subject of series [4] is Male Wistar rats. Kind of series: Paclitaxel-induced mechanical allodynia (Dynamic Plantar Aesthesiometer). It is filed as in vivo, rat. The following applies: paclitaxel model. Here is the method: as §1, §2, §3, §4
To assess the development of mechanical allodynia, sensitivity to tactile stimulation was measured using the Dynamic Plantar Aesthesiometer (DPA, Ugo Basile, Italy). Animals were placed in a chamber with a mesh metal floor covered by a plastic dome that enabled the animal to walk freely, but not to jump. The mechanical stimulus were then delivered in the mid-plantar skin of the hind paw. The cut-off was fixed at 50 g. […]
as §5

Series [5] relates to F-11 cell line. As to the kind of experiment: Paclitaxel-induced cytoskeleton modifications, immunofluorescence in differentiated F11 neurons. The following applies: 24 hours. It is filed as cell-based, mouse/rat. Here is the method: In this study, the effects of paclitaxel, administered alone or in combination with reparixin (DF1681Y; R-(−)-2-(4-isobutylphenyl)propionyl methanesulfonamide) dissolved in aqueous solution of lysine to form the in situ salt, on the cytoskeleton components and organization was performed. As experimental model, a F-11 cell line, a fusion product of mouse neuroblastoma cell line N18TG-2 cells with embryonic rat dorsal root ganglia sensory neurons, was used. These cells were selected because of the presence of neuronal markers and properties that are unique to the parental rat sensory neurons.
F11 (ECACC, Salisbury, UK) cells were cultivated DMEM (Euroclone, MI, Italy) medium supplemented with 10% FBS, USA origin, (Sigma-Aldrich St. Louis, CO, USA), 1% penicillin/streptomycin (Euroclone) and 1% glutamine (Euroclone). After, cells were differentiated with mouse NGF (mNGF) dissolved in DMEM with 1% penicillin/streptomycin and 1% glutamine (FBS free) at the final concentration 50 ng/ml. Medium was replaced every 3 days until complete differentiation, occurred after 7 days. Neurons were not treated (controls) or treated for 24 hours with reparixin [10 μM final concentration], paclitaxel (Sigma-Aldrich) [10 nM final concentration] and the combination of the two molecules.
Cells were fixed in paraformaldehyde 4% in PBS for 20 min at RT and permeabilized in methanol for 5 min at −20° C. Cells were then blocked with PBS containing 4% BSA for 30 min and incubated with primary antibodies diluted in the blocking solution overnight at 4° C.: rabbit β-tubulin (Abcam, Cambridge, UK) 1:500; mouse α-tubulin (Abcam) 1:200 and mouse α-tubulin acetylated (Abcam) 1:1000. Cells were then rinsed in PBS several times before incubation with secondary antibodies, goat anti rabbit conjugated with Alexafluor 633 (1:2000), and goat anti mouse conjugated with Alexafluor 488 (1:2000), (Life Technologies, CA, USA) for 30 min at RT. After extensive washing coverslips were mounted with Vectashield mounting medium with DAPI (Vector Laboratories Burlingame, CA, USA) and then observed at confocal laser microscope.

[6] abbreviates: DF2726A 30 mg/kg os once a day from day -3 to day 11, day 14 (after end of treatment).
Setting [7] is: DF2726A 30 mg/kg os once a day from day -3 to day 11, days 5 (P<0.05), 7 (P<0.001), 10 (P<0.001).
Where [8] appears, read: DF1681B continuous subcutaneous infusion from day -3 to day +11, day 14.
The mark [9] stands for this setting: reparixin 10 μM in combination with paclitaxel 10 nM.

In the case of `CC(C)(C(=O)[O-])c1ccc(Nc2nc(C(F)(F)F)cs2)cc1.[Na+]` [DF2726A, 2-methyl-2-(4-{[4-(trifluoromethyl)-1,3-thiazol-2-yl]amino}phenyl)propanoic acid sodium salt], the entries for the “cold allodynia (number of paw withdrawals) vs animals treated with vehicle” value in series [1] (setting [6]) and in series [1] (setting [7]) were “No additional antiallodynic effect” and “significant reduction of cold allodynia”, respectively. Also, the “mechanical allodynia (paw withdrawal threshold)” value in series [2] (DF2726A 30 mg/kg/os for 24 consecutive days from day -3) was “significant antiallodynic effect”. Moreover, the “cold allodynia (number of paw withdrawals)” value in series [3] (DF2726A 30 mg/kg/os for 24 consecutive days from day -3, day 3) is “did not show antiallodynic effect”; in series [3] (DF2726A 30 mg/kg/os for 24 consecutive days from day -3, days 5, 7, 10, 14, 21), “significant reduction of cold allodynia”. The “mechanical allodynia (paw withdrawal threshold) vs animals treated with vehicle” value is given as “No additional significant antiallodynic effect” in series [4] (setting [6]) and “significant reduction of mechanical allodynia” in series [4] (setting [7]).
Regarding `CC(=O)O[C@H]1C(=O)[C@@]2(C)[C@H]([C@H](OC(=O)c3ccccc3)[C@]3(O)C[C@H](OC(=O)[C@H](O)[C@@H](NC(=O)c4ccccc4)c4ccccc4)C(C)=C1C3(C)C)[C@]1(OC(C)=O)CO[C@@H]1C[C@@H]2O` [paclitaxel, reference compound], in series [5] (paclitaxel 10 nM alone), the “acetylated α-tubulin (marker of stable microtubules), immunofluorescence” value is listed as “increased acetylated α-tubulin”; the “fluorescence intensity of β-tubulin” value was “decrease of the fluorescence intensity of β-tubulin”; the neurite diameter result is “increase of neurite diameter”.
On to `CC(C)Cc1ccc([C@@H](C)C(=O)NS(C)(=O)=O)cc1` [DF1681B, R(−)-2-(4-isobutylphenyl)propionyl methansulfonamide], for which the “cold allodynia (number of paw withdrawals) vs animals treated with vehicle” value in series [1] (setting [8]) is reported as “No additional antiallodynic effect”; in series [1] (DF1681B continuous subcutaneous infusion from day -3 to day +11, days 5 (P<0.01), 7 (P<0.001), 10 (P<0.001)), “significant reduction of cold allodynia”. The “mechanical allodynia (paw withdrawal threshold)” value in series [2] (DF1681B continuous subcutaneous infusion 8 mg/hr/kg from day -3) is given as “significant antiallodynic effect”. The “cold allodynia (number of paw withdrawals)” value in series [3] (DF1681B continuous subcutaneous infusion 8 mg/hr/kg from day -3, day 3) is “did not show antiallodynic effect”; in series [3] (DF1681B continuous subcutaneous infusion 8 mg/hr/kg from day -3, days 5, 7, 10, 14, 21) it was “significant reduction of cold allodynia”. The “mechanical allodynia (paw withdrawal threshold) vs animals treated with vehicle” value in series [4] (DF1681B continuous subcutaneous infusion by osmotic pump from day -3 to day +11, days 5 (P<0.01), 7 (P<0.001), 10 (P<0.001)) is listed as “significant reduction of mechanical allodynia”; in series [4] (setting [8]), “No additional antiallodynic effect”.
As to `CC(C)Cc1ccc([C@@H](C)C(=O)NS(C)(=O)=O)cc1` [reparixin, R-(−)-2-(4-isobutylphenyl)propionyl methanesulfonamide], in series [5] (setting [9]), the “acetylated α-tubulin (marker of stable microtubules), immunofluorescence” value was “acetylated α-tubulin appears similar to the control”; the “increased neurite thickness induced by paclitaxel treatment” value is on record as “able to abolish”; the “α-tubulin and β-tubulin immunofluorescence (dimer formation)” value was “able to counteract the effect of paclitaxel alone on dimer formation”.
